Assay results: publication PMC8621857, “Structural Insights into the Azole Resistance of the Candida albicans Darlington Strain Using Saccharomyces cerevisiae Lanosterol 14α-Demethylase as a Surrogate” (Journal of Fungi, 2021)

How the values were obtained:
[1] = test system: S. cerevisiae strain AD3Δ ScErg11 (AD3Δ) overexpressing wild-type ScLDM6×His; test: Broth microdilution drug susceptibility assay (MIC80), strain AD3Δ ScErg11; format: cell-based, Saccharomyces cerevisiae; conditions: strain AD3Δ; for MIC80: Saccharomyces cerevisiae, 48 h, 30 °C, pH 6.8, mean (± SEM), n = 3, read-out: MIC80; for MIC80/Relative Amount of ScLDM6×His: relative expression 1
Description: (§1) The native ScERG11 gene in yeast cells containing mutant ScERG11-6×His constructs in the PDR5 locus was disrupted by homologous recombination with a cassette encoding the His1 selection marker and sequences homologous with the regions bordering the endogenous ScERG11 ORF to create strains AD3Δ ScErg11 Y140H, AD3Δ ScErg11 I471T and AD3Δ ScErg11Y140H I471T [43]. Transformants were selected on SD-His agar plates incubated at 30 °C for 48–72 h. Genomic DNA was extracted, and DNA sequencing as above was used to confirm deletion of the native ERG11. Strain AD3Δ ScErg11 (denoted as AD3Δ), which overexpresses wild-type ScLDM6×His from the PDR5 locus and has the native ScERG11 gene disrupted, was used as a control strain [43].
(§2) Azole susceptibility was measured as the mean drug concentration required to inhibit 80% of yeast growth (MIC80) compared to a non-drug control, using a standard broth microdilution assay. Serial dilutions of short- (FLC and VCZ), medium- (VT-1161), and long-tailed (ITC and PCZ) azole drugs, and the control drugs micafungin (MCF) and amphotericin B (AMB), were prepared in a 96-well microtiter plate in complete synthetic media lacking uracil, buffered to pH 6.8 [34]. Control and test cells were seeded at an optical density of 600 nm (OD600) of 0.005 (~1.5 × 10^4 colony forming units). After incubation for 48 h at 30 °C with constant agitation (200 rpm), the OD600 nm of each well was measured using a Synergy 2 multi-mode plate reader (BioTek Instruments, Winooski, VT, USA). The experiment was repeated three times (a total of nine measurements for the response of each strain to each drug). GraphPad Prism 5.0 software was used for statistical analysis, using a one-way analysis of variance with a Bonferroni post-hoc test. The statistical significance of comparisons was accepted when p < 0.05.

[2] = target: wild-type and Y140F/H mutants of ScLDM6×His; design: method as in earlier work; conditions: no significant differences, ref 5 (supplement; Sagatova et al. 2016); cited from earlier work
[3] = test system: S. cerevisiae strain AD3Δ ScErg11 Y140H expressing ScLDM6×His Y140H; test: Broth microdilution drug susceptibility assay (MIC80), strain AD3Δ ScErg11 Y140H; format: cell-based, Saccharomyces cerevisiae; conditions: for MIC80: Saccharomyces cerevisiae, 48 h, 30 °C, pH 6.8, mean (± SEM), n = 3; for MIC80 / MIC80/Relative Amount of ScLDM6×His / fold-resistance based on the relative amount of recombinant enzyme compared with strain AD3Δ: strain Y140H; for MIC80/Relative Amount of ScLDM6×His / fold-resistance based on the relative amount of recombinant enzyme compared with strain AD3Δ: relative expression 0.74
Description: as §1, §2

[4] = test system: C. albicans Darlington strain; test: Agarose disk diffusion assay, Darlington strain; format: cell-based, Candida albicans; conditions: for effect of Mdr1 inhibitor MCC1189 on azole susceptibility: MCC1189 at 6 µM in the assay medium; for effect of Cdr1p inhibitor RC21v3 on azole susceptibility: RC21v3 at 6 µM in the assay medium; for agarose diffusion susceptibility: no efflux pump inhibitor
Description: Agarose diffusion assays were carried out as described previously using the Darlington strain of C. albicans (Pfizer Ltd., Sandwich, UK) and the control C. albicans database strain SC5314, which is not resistant to azoles. The Cdr1p-specific inhibitor RC21v3 and the CaMdr1p-specific inhibitor MCC1189 (MicroCombiChem, Wiesbaden, Germany), included in the assay medium at 6 µM, were used to investigate the contribution of efflux pumps to azole resistance in the Darlington strain [49, 50, 51].

[5] = test system: S. cerevisiae strain AD2Δ (native wild-type ScLDM); test: Broth microdilution drug susceptibility assay (MIC80), host strain AD2Δ; format: cell-based; conditions: Saccharomyces cerevisiae; strain AD2Δ; 48 h, 30 °C, pH 6.8; mean (± SEM), n = 3; read-out: MIC80
Description: Yeast strains used in this study (Supplementary Table S1) were prepared using the AD2Δ strain of S. cerevisiae as a host, using an established protocol. AD2Δ is hypersensitive to xenobiotics due to the deletion of seven major ABC transporters, including those responsible for the efflux of azole drugs. It is also deleted of the PDR3 transcriptional regulator, but contains the gain-of-function Pdr1-3 transcriptional regulator mutation that leads to constitutive overexpression from the PDR5 locus.
as §2

Row | Compound | MIC80 [1] | MIC80/Relative Amount of ScLDM6×His [1] | Kd [2] | MIC80 [3] | susceptibility compared with AD3Δ cells ([3]; cells overexpressing ScLDM6×His Y140H, not corrected for expression) | MIC80/Relative Amount of ScLDM6×His [3] | fold-resistance based on the relative amount of recombinant enzyme compared with strain AD3Δ [3] | effect of Mdr1 inhibitor MCC1189 on azole susceptibility [4] | effect of Cdr1p inhibitor RC21v3 on azole susceptibility [4] | agarose diffusion susceptibility [4] | MIC80 [5] | resistance conferred, relative amount of recombinant ScLDM6×His taken into account ([3]; ScLDM6×His Y140H vs AD3Δ) | MIC80 higher than strain AD3Δ ScErg11 ([3]; strain AD3Δ ScErg11 Y140H vs AD3Δ, not corrected for expression, p < 0.001)
1 | CCC(C)n1ncn(-c2ccc(N3CCN(c4ccc(OCC5COC(Cn6cncn6)(c6ccc(Cl)cc6Cl)O5)cc4)CC3)cc2)c1=O (centres unmarked) [ITC, itraconazole] | 0.143 µM | 0.143 µM | ~0.5 µM | 0.112 µM | slightly increased susceptibility | 0.151 µM | 1.1 × | no effect on susceptibility | increased susceptibility | resistant | 0.0735 µM |  | 
2 | C[C@@H](c1ncncc1F)[C@](O)(Cn1cncn1)c1ccc(F)cc1F [VCZ, voriconazole] | 0.0933 µM | 0.0933 µM | ~0.5 µM | 0.164 µM |  | 0.221 µM | 2.4 × | did not alter the susceptibility | did not alter the susceptibility | resistant | 0.0375 µM | 2.4 fold | ~ 2 fold
